Measured values reported in PMC2907470 (Nature chemical biology, 2010).

Assays:
Scn-Ngal [1] = target: T1, Scn-Ngal (Homo sapiens, UniProt P80188); experiment: Release of ligands from Scn-Ngal on acidification; type: binding; settings: acidification from neutral pH; n = 3
Scn-Ngal [2] = target: T1, Scn-Ngal; type: binding; settings: for iron retention by Scn-Ngal, dose-response: urinary compounds 0.5–100 µM, Scn-Ngal 10 µM
C57BL/6 mice = type: in vivo, mouse; settings: for cleared in the urine: by 180 min after introduction; for organ distribution: i.p., 20 and 180 min
[3] = Stability of catechol in solution monitored by NMR; settings: monitored for 20 hrs by NMR, D2O
Scn-Ngal [4] = target: T1, Scn-Ngal; experiment: Fluorescence quenching analysis of Scn-Ngal with free catechol ligands; type: binding; settings: with iron III versus catechol itself
[5] = target: Scn-Ngal K125A, K134A mutant (Homo sapiens, UniProt P80188, K145A/K154A); experiment: 55Fe retention by Scn-Ngal K125A, K134A mutant; type: binding; settings: K125 and K134 mutated to alanine, versus wild type
Scn-Ngal K125A, K134A mutant, sequence (P80188 21-198 K145A/K154A): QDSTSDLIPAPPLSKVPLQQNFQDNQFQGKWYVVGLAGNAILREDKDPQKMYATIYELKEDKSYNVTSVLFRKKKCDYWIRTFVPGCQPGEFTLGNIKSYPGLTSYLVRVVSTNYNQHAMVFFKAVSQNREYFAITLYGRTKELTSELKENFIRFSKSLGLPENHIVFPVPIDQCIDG

[6] = tested on: embryonic kidney FoxD1+ stromal cells; experiment: Capture of 55Fe from Scn-Ngal:catechol:55Fe by kidney stromal cells; type: cell-based, mouse; settings: 37°C, bafilomycin 0.15 nmole, 3 hrs
LLCPK cells = experiment: Iron responsive 5'IRE-YFP reporter in LLCPK cells; type: cell-based; settings: 100 or 500 µg/ml, 16 hrs, compared to DMEM alone
[7] = tested on: kidney proximal tubule LLCPK1 cells; experiment: Capture of 55Fe from Scn-Ngal:catechol:55Fe by LLCPK cells; type: cell-based; settings: 37°C
[8] = Generation of hydroxyl radicals; type: biochemical; settings: 10 µM FeCl3, 30 µM catechols, 2 mM H2O2; Scn-Ngal 10 µM where added

Cc1cccc(O)c1O [3-methylcatechol, 3-methylbenzene-1,2-diol]
pH at which Scn-Ngal:ligand:FeIII complex dissociated (Scn-Ngal [1]): 6.0
iron retention by Scn-Ngal, dose-response (Scn-Ngal [2]): saturable iron retention

Cc1ccc(O)c(O)c1 [4-methylcatechol, 4-methylbenzene-1,2-diol]
iron retention by Scn-Ngal, dose-response (Scn-Ngal [2]): saturable iron retention

Oc1ccccc1O [Catechol, benzene-1,2-diol]
pH at which Scn-Ngal:ligand:FeIII complex dissociated (Scn-Ngal [1]): 6.0
iron retention by Scn-Ngal, dose-response (Scn-Ngal [2]): saturable iron retention
cleared in the urine (C57BL/6 mice): 80.56±8.8%
stability in solution [3]: stable in solution
increase in binding affinity in the presence of iron III (Scn-Ngal [4]): 100 fold

O=C(N[C@H]1COC(=O)[C@@H](NC(=O)c2cccc(O)c2O)COC(=O)[C@@H](NC(=O)c2cccc(O)c2O)COC1=O)c1cccc(O)c1O [Ent, reference compound]
association of urinary catechols with Scn-Ngal in presence of competitor (Scn-Ngal [2]; 50 fold molar excess of Ent presaturated with non-radioactive iron): blocked

O=C(N[C@H]1COC(=O)[C@@H](NC(=O)c2cccc([O-])c2[O-])COC(=O)[C@@H](NC(=O)c2cccc([O-])c2[O-])COC1=O)c1cccc([O-])c1[O-].[Fe+3] [Ent:Fe]
capture of siderophore:Fe by mutant Scn-Ngal [5]: ineffective

Oc1cccc(O)c1O [Pyrogallol, benzene-1,2,3-triol]
pH at which Scn-Ngal:ligand:FeIII complex dissociated (Scn-Ngal [1]): < 4
iron retention by Scn-Ngal, dose-response (Scn-Ngal [2]): saturable iron retention

bafilomycin [reference compound]
55Fe uptake [6]: inhibited

transferrin:iron: iron-loaded transferrin, comparator [reference compound]
organ distribution (C57BL/6 mice): accumulated in the bone marrow

B1: Scn-Ngal:catechol:Fe: complex of the lipocalin Scn-Ngal with catechol and iron (protein, UniProt P80188 21-198, looked up)
Neutrophil …: QDSTSDLIPAPPLSKVPLQQNFQDNQFQGKWYVVGLAGNAILREDKDPQKMYATIYELKEDKSYNVTSVLFRKKKCDYWIRTFVPGCQPGEFTLGNIKSYPGLTSYLVRVVSTNYNQHAMVFFKKVSQNREYFKITLYGRTKELTSELKENFIRFSKSLGLPENHIVFPVPIDQCIDG
modifications: complex with catechol and iron
cleared in the urine (C57BL/6 mice): 56.4±6.7%
organ distribution (C57BL/6 mice): targeted the kidney
iron dependent YFP probe (LLCPK cells): activated
55Fe uptake [7]: Uptake occurred
55Fe uptake [6]: Uptake occurred

B2: Scn-Ngal: Neutrophil Gelatinase Associated Lipocalin, recombinant, expressed in BL-21 bacteria (protein, UniProt P80188 21-198, looked up)
Neutrophil …: QDSTSDLIPAPPLSKVPLQQNFQDNQFQGKWYVVGLAGNAILREDKDPQKMYATIYELKEDKSYNVTSVLFRKKKCDYWIRTFVPGCQPGEFTLGNIKSYPGLTSYLVRVVSTNYNQHAMVFFKKVSQNREYFKITLYGRTKELTSELKENFIRFSKSLGLPENHIVFPVPIDQCIDG
conversion of HPF to fluorescein (hydroxyl radical formation) [8]: blocked the reaction
